Reference: ChEMBL document CHEMBL2169751, “Synthesis and biological evaluation of novel pyrazole derivatives with anticancer activity” (2011)

What follows are molecules tested on Mycobacterium tuberculosis (assay: Antimycobacterial activity against Mycobacterium tuberculosis H37Rv ATCC 27294 after 7 days by Resazurin assay).
Type: functional
Design: concentration or dose not given beside the values
With `O=C(NNC(=S)Nc1cccc(Cl)c1)c1cnc2c(C(F)(F)F)cccc2c1O` the “inhibition (INH)” value was less than 90%.
`COc1ccc(NC(=O)NNC(=O)c2cnc3c(C(F)(F)F)cccc3c2O)cc1` was tested, and the “inhibition (INH)” value was 90%.
For `Cc1ccc(/C=N/NC(=O)c2cnc3c(C(F)(F)F)cccc3c2O)cc1`, the “inhibition (INH)” value was less than 90%.
`COc1ccc(NC(=S)NNC(=O)c2cnc3c(C(F)(F)F)cccc3c2O)cc1` was tested, and the “inhibition (INH)” value was less than 90%.
In the case of `COc1ccc(/C=N/NC(=O)c2cnc3c(C(F)(F)F)cccc3c2O)c(F)c1`, the “inhibition (INH)” value is reported as 95%.
In the case of `O=C(N/N=C/c1cc(F)ccc1O)c1cnc2c(C(F)(F)F)cccc2c1O`, the “inhibition (INH)” value is reported as less than 90%.
With `COc1ccc(/C=N/NC(=O)c2cnc3c(C(F)(F)F)cccc3c2O)cc1` the “inhibition (INH)” value was 90%.
In the case of `O=C(NNC(=S)Nc1cccnc1)c1cnc2c(C(F)(F)F)cccc2c1O`, the “inhibition (INH)” value is reported as 0%.
`COc1ccc(/C=N/NC(=O)c2cnc3c(C(F)(F)F)cccc3c2O)cc1O` was tested, and the “inhibition (INH)” value was less than 90%.
With `O=C(NNC(=O)c1cnc2c(C(F)(F)F)cccc2c1O)Nc1cccc(Cl)c1` the “inhibition (INH)” value was less than 90%.
`Cc1cc(C)cc(NC(=O)NNC(=O)c2cnc3c(C(F)(F)F)cccc3c2O)c1` was tested, and the “inhibition (INH)” value was less than 90%.
In the case of `O=C(NNC(=S)Nc1ccccc1F)c1cnc2c(C(F)(F)F)cccc2c1O`, the “inhibition (INH)” value is reported as 95%.
With `COc1ccc2[nH]cc(/C=N/NC(=O)c3cnc4c(C(F)(F)F)cccc4c3O)c2c1` the “inhibition (INH)” value was 95%.
For `Cn1nnc2cc(/C=N\NC(=O)c3cnc4c(C(F)(F)F)cccc4c3O)ccc21`, the “inhibition (INH)” value was less than 90%.
With `O=C(N/N=C/c1ccc2c(c1)CCO2)c1cnc2c(C(F)(F)F)cccc2c1O` the “inhibition (INH)” value was 0%.
For `CO[C@H]1/C=C/O[C@@]2(C)Oc3c(C)c(O)c4c(O)c(c(/C=N/N5CCN(C)CC5)c(O)c4c3C2=O)NC(=O)/C(C)=C\C=C\[C@H](C)[C@H](O)[C@@H](C)[C@@H](O)[C@@H](C)[C@H](OC(C)=O)[C@@H]1C` [RIFAMPIN], the “inhibition (INH)” value was 95%.
In the case of `O=C(N/N=C/c1ccncc1)c1cnc2c(C(F)(F)F)cccc2c1O`, the “inhibition (INH)” value is reported as 0%.
`Cc1cccc2c(/C=N/NC(=O)c3cnc4c(C(F)(F)F)cccc4c3O)c[nH]c12` was tested, and the “inhibition (INH)” value was 95%.
`O=C(N/N=C/c1cnc[nH]1)c1cnc2c(C(F)(F)F)cccc2c1O` was tested, and the “inhibition (INH)” value was 90%.
For `Cc1ccc(NC(=O)NNC(=O)c2cnc3c(C(F)(F)F)cccc3c2O)cc1`, the “inhibition (INH)” value was 90%.
`Cn1cccc1/C=N\NC(=O)c1cnc2c(C(F)(F)F)cccc2c1O` was tested, and the “inhibition (INH)” value was 90%.
`CSc1ccccc1/C=N/NC(=O)c1cnc2c(C(F)(F)F)cccc2c1O` was tested, and the “inhibition (INH)” value was 0%.
For `NNC(=O)c1ccncc1` [ISONIAZID], the “inhibition (INH)” value was 95%.
`COC(=O)Cc1cc(/C=N/NC(=O)c2cnc3c(C(F)(F)F)cccc3c2O)co1` was tested, and the “inhibition (INH)” value was less than 90%.
With `Cc1[nH]cnc1/C=N/NC(=O)c1cnc2c(C(F)(F)F)cccc2c1O` the “inhibition (INH)” value was 90%.
With `Cc1ccc(NC(=S)NNC(=O)c2cnc3c(C(F)(F)F)cccc3c2O)cc1` the “inhibition (INH)” value was 0%.
In the case of `O=C(N/N=C/c1ccc(OC(F)(F)C(F)F)cc1)c1cnc2c(C(F)(F)F)cccc2c1O`, the “inhibition (INH)” value is reported as less than 90%.
`CCc1ccc(NC(=O)NNC(=O)c2cnc3c(C(F)(F)F)cccc3c2O)cc1` was tested, and the “inhibition (INH)” value was less than 90%.
